Source: patent US12187728B2 (Raze Therapeutics, Inc., priority 2015, dated 2025)

Target: T1, Human MTHFD2 (Homo sapiens, UniProt P13995)
T1 construct: residues 36-350 in Uniport ID P13995; His6 (N); made in house; host or cells: E. coli
T1 sequence (P13995 36-350): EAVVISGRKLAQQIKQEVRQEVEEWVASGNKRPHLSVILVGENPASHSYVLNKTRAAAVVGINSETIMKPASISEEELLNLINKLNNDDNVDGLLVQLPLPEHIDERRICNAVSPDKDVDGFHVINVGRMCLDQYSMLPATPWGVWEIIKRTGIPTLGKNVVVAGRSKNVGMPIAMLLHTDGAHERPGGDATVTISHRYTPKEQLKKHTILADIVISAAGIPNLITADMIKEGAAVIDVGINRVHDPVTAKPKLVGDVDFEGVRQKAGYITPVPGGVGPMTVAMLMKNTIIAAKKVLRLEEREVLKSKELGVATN
Assay: MTHFD2 Activity Assay (dehydrogenase activity, diaphorase/resazurin coupled fluorescence)
Type: biochemical
Conditions: inhibitory activity (IC50 and/or binding constant); 0.2 nM MTHFD2, 11 concentrations
From the text: Human MTHFD2 (residues 36-350 in Uniport ID P13995) was expressed as an N-terminal His6 tagged protein and purified in E. coli using nickel capture followed by size-exclusion chromatography.
MTHFD2 dehydrogenase activity oxidizes methylene tetrahyrofolate to methenyl-tetrahydrofolate with the concomitant reduction of NAD to NADH. MTHFD2 dehydrogenase activity was followed by coupling the generation of NADH to diaphorase catalyzed […] of resazurin to fluorescent resorufin. Briefly, control (DMSO) or compound was incubated with 0.2 nM MTHFD2 for 15 minutes in 10.5 μl assay buffer containing 100 mM Hepes, pH 8.0, 5 mM MgCl2, 5 mM KH2PO4, 0.05% BSA, 0.01% Tween-20 in a 384 well Griener, low volume, black plate. 10 μl of substrate buffer containing 70 μM CH2-THF, 1 mM NAD^+, 100 μM Resazurin and 0.42 mg/ml diaphorase was then added to initiate the reaction and the reaction plate was incubated for 30 minutes. 5 μl of 250 mM EDTA was then added to each well to stop the reaction and MTHFD2 activity was quantified by measuring resorufin fluorescence emission at 598 nm following excitation at 525 nm. Activity in positive control wells containing the complete reaction mixture and DMSO alone was set to 100% while activity in negative control wells with the complete reaction mix without MTHFD2 was set to 0%. 11 concentrations of each compound were tested and the fluorescent data at each concentration was normalized to the positive and negative controls and represented as % inhibition. Median inhibitory concentration (IC50) was calculated by fitting % inhibition at each concentration to a 4 parameter logistic fit equation using Graphpad Prizm.
The compound numbers correspond to the compound numbers in Table A (i.e., the example numbers).

IC50	SMILES
10 to 1000 nM	CC(=O)NCc1nccc(Nc2nc3c(c(=O)n(Cc4cc5c(Cl)cccc5[nH]4)c(=O)n3C)n2C)n1 [Example 451, N-((4-(1-((4-chloro-1H-indol-2-yl)methyl)-3,7-dimethyl-2,6-dioxo-2,3,6,7-tetrahydro-1H-purin-8-ylamino)pyrimidin-2-yl)methyl)acetamide]
10 to 1000 nM	Cn1c(Nc2ccnc(CCC(=O)N3CCC3)n2)nc2c1c(=O)n(Cc1cc3c(Cl)cccc3[nH]1)c(=O)n2C [Example 413, 8-(2-(3-(azetidin-1-yl)-3-oxopropyl)pyrimidin-4-ylamino)-1-((4-chloro-1H-indol-2-yl)methyl)-3,7-dimethyl-1H-purine-2,6(3H,7H)-dione]
10 to 1000 nM	Cc1cccc2cc(Cn3c(=O)c4c(nc(C(C)N)n4C)n(C)c3=O)ccc12 (stereo not shown) [Example 448, 8-(1-aminoethyl)-3,7-dimethyl-1-((5-methylnaphthalen-2-yl)methyl)-1H-purine-2,6(3H,7H)-dione]
10 to 1000 nM	Cn1c(NC(=O)C(F)(F)F)nc2c1c(=O)n(Cc1cc3c(Cl)cccc3[nH]1)c(=O)n2C [Example 422, N-[1-[(4-chloro-1H-indol-2-yl)methyl]-3,7-dimethyl-2,6-dioxo-purin-8-yl]-2,2,2-trifluoro-acetamide]
10 to 1000 nM	COc1ccc(Nc2nc3c(c(=O)n(Cc4cc5c(Cl)cccc5[nH]4)c(=O)n3C)n2C)cn1 [Example 380, 1-((4-chloro-1H-indol-2-yl)methyl)-8-(6-methoxypyridin-3-ylamino)-3,7-dimethyl-1H-purine-2,6(3H,7H)-dione]
> 10000 nM	Cn1c(Nc2ccncc2)nc2c1c(=O)n(Cc1cc3c(-c4ccccc4)cccc3[nH]1)c(=O)n2C [Example 374, 3,7-dimethyl-1-((4-phenyl-1H-indol-2-yl)methyl)-8-(pyridin-4-ylamino)-1H-purine-2,6(3H,7H)-dione]
10 to 1000 nM	Cn1c(C(N)C2CCCCC2)nc2c1c(=O)n(Cc1cc3c(Cl)cccc3[nH]1)c(=O)n2C (stereo not shown) [Example 446, 8-[amino(cyclohexyl)methyl]-1-[(4-chloro-1H-indol-2-yl)methyl]-3,7-dimethyl-purine-2,6-dione]
10 to 1000 nM	Cn1c(Nc2ccc(C(N)=O)cc2)nc2c1c(=O)n(Cc1cc3c(Cl)cccc3[nH]1)c(=O)n2C [Example 420, 4-[[1-[(4-chloro-1H-indol-2-yl)methyl]-3,7-dimethyl-2,6-dioxo-purin-8-yl]amino]benzamide]
10 to 1000 nM	CC(N)c1nc2c(c(=O)n(Cc3[nH]c4cccc(Cl)c4c3Cl)c(=O)n2C)n1C (stereo not shown) [Example 456, 8-(1-aminoethyl)-1-[(3,4-dichloro-1H-indol-2-yl)methyl]-3,7-dimethyl-purine-2,6-dione]

The next lines start with the molecule.

SMILES	IC50
Cn1c(=O)n(Cc2ccc(Cl)c(Cl)c2)c(=O)c2c1nc(NC1CCCC(C(=O)O)C1)n2CCN (stereo not shown) [Example 369, 3-(7-(2-aminoethyl)-1-(3,4-dichlorobenzyl)-3-methyl-2,6-dioxo-2,3,6,7-tetrahydro-1H-purin-8-ylamino)cyclohexanecarboxylic acid]	10 to 1000 nM
C[C@H](O)CNc1nc2c(c(=O)n(Cc3ccc(Cl)c(Cl)c3)c(=O)n2C)n1C [Example 8, 1-[(3,4-dichlorophenyl)methyl]-8-{[(2S)-2-hydroxypropyl]amino}-3,7-dimethyl-2,3,6,7-tetrahydro-1H-purine-2,6-dione]	10 to 1000 nM
Cn1c(NC2CNC2)nc2c1c(=O)n(Cc1ccc(Cl)c(Cl)c1)c(=O)n2C [Example 65, 8-[(azetidin-3-yl)amino]-1-[(3,4-dichlorophenyl)methyl]-3,7-dimethyl-2,3,6,7-tetrahydro-1H-purine-2,6-dione]	1000 to 5000 nM
Cn1c(Nc2ncco2)nc2c1c(=O)n(Cc1ccc(Cl)c(Cl)c1)c(=O)n2C [Example 123, 1-(3,4-dichlorobenzyl)-3,7-dimethyl-8-(oxazol-2-ylamino)-1H-purine-2,6(3H,7H)-dione]	5000 to 10000 nM
Cn1cnc2c1c(=O)n(Cc1cc3cc(Cl)ccc3n1C)c(=O)n2C [Example 242, 1-((5-chloro-1-methyl-1H-indol-2-yl)methyl)-3,7-dimethyl-1H-purine-2,6(3H,7H)-dione]	1000 to 5000 nM
Cn1c(Nc2ccnc([C@H]3C[C@@H]3C(=O)O)c2)nc2c1c(=O)n(Cc1cc3c(Cl)cccc3[nH]1)c(=O)n2C (single isomer, unassigned) [Example 363, (1S,2S)-2-(4-((1-((4-chloro-1H-indol-2-yl)methyl)-3,7-dimethyl-2,6-dioxo-2,3,6,7-tetrahydro-1H-purin-8-yl)amino)pyridin-2-yl)cyclopropanecarboxylic acid or (1R,2R)-2-(4-((1-((4-chloro-1H-indol-2-yl)methyl)-3,7-dimethyl-2,6-dioxo-2,3,6,7-tetrahydro-1H-purin-8-yl)amino)pyridin-2-yl)cyclopropanecarboxylic acid]	10 to 1000 nM
Cn1c(Nc2ccncc2)nc2c1c(=O)n(Cc1cc3ccccc3[nH]1)c(=O)n2C [Example 174, 1-((1H-indol-2-yl)methyl)-3,7-dimethyl-8-(pyridin-4-ylamino)-1H-purine-2,6(3H,7H)-dione]	10 to 1000 nM
Cn1c(Nc2ccncn2)nc2c1c(=O)n(Cc1cc3cc(Cl)ccc3[nH]1)c(=O)n2C [Example 208, 1-((5-chloro-1H-indol-2-yl)methyl)-3,7-dimethyl-8-(pyrimidin-4-ylamino)-1H-purine-2,6(3H,7H)-dione]	10 to 1000 nM
Cn1c(N[C@@H]2CCC[C@@H]2O)nc2c1c(=O)n(Cc1cc3c(Cl)cccc3[nH]1)c(=O)n2C [Example 359]	10 to 1000 nM
CN(C)CCc1nc2c(c(=O)n(Cc3ccc(Cl)c(Cl)c3)c(=O)n2C)n1C [Example 157, 1-(3,4-dichlorobenzyl)-8-(2-(dimethylamino)ethyl)-3,7-dimethyl-1H-purine-2,6(3H,7H)-dione]	1000 to 5000 nM
Cn1c(-n2c(N)nc3ccccc32)nc2c1c(=O)n(Cc1cc3c(Cl)cccc3[nH]1)c(=O)n2C [Example 353, 8-(2-amino-1H-benzo[d]imidazol-1-yl)-1-((4-chloro-1H-indol-2-yl)methyl)-3,7-dimethyl-1H-purine-2,6(3H,7H)-dione]	1000 to 5000 nM
Cn1c(Nc2ccnc([C@H]3C[C@@H]3CO)c2)nc2c1c(=O)n(Cc1ccc(Cl)c(Cl)c1)c(=O)n2C (racemic) [Example 284, (±)-trans-1-(3,4-dichlorobenzyl)-8-((2-(2-(hydroxymethyl)cyclopropyl)pyridin-4-yl)amino)-3,7-dimethyl-1H-purine-2,6(3H,7H)-dione]	10 to 1000 nM
Cn1c(Nc2ccc(C(=O)O)cc2)nc2c1c(=O)n(Cc1ccc(Cl)c(Cl)c1)c(=O)n2C [Example 269, 4-[[1-[(3,4-dichlorophenyl)methyl]-3,7-dimethyl-2,6-dioxo-purin-8-yl]amino]benzoic acid]	10 to 1000 nM
Cn1c(Cn2c(=O)c3c(nc(Nc4cccnn4)n3C)n(C)c2=O)cc2cc(Cl)ccc21 [Example 203, 1-((5-chloro-1-methyl-1H-indol-2-yl)methyl)-3,7-dimethyl-8-(pyridazin-3-ylamino)-1H-purine-2,6(3H,7H)-dione]	5000 to 10000 nM
Cn1c(N[C@H]2CC[C@H](CO)C2)nc2c1c(=O)n(Cc1ccc(Cl)c(Cl)c1)c(=O)n2C (racemic) [Example 325, (±)-1-(3,4-dichlorobenzyl)-8-((trans)-3-(hydroxymethyl)cyclopentylamino)-3,7-dimethyl-1H-purine-2,6(3H,7H)-dione]	10 to 1000 nM
Cn1c(Cn2c(=O)c3c(nc(N4CC(O)C4)n3C)n(C)c2=O)cc2cc(Cl)ccc21 [Example 197, 1-((5-chloro-1-methyl-1H-indol-2-yl)methyl)-8-(3-hydroxyazetidin-1-yl)-3,7-dimethyl-1H-purine-2,6(3H,7H)-dione]	10 to 1000 nM
C[C@@H](CCO)Nc1nc2c(c(=O)n(Cc3ccc(Cl)cc3)c(=O)n2C)n1C [Example 31, 1-[(4-chlorophenyl)methyl]-8-{[(2S)-4-hydroxybutan-2-yl]amino}-3,7-dimethyl-2,3,6,7-tetrahydro-1H-purine-2,6-dione]	1000 to 5000 nM
COc1ccc(Cn2c(=O)c3c(nc(NC[C@H](C)O)n3C)n(C)c2=O)cc1 [Example 34, 8-{[(2S)-2-hydroxypropyl]amino}-1-[(4-methoxyphenyl)methyl]-3,7-dimethyl-2,3,6,7-tetrahydro-1H-purine-2,6-dione]	> 10000 nM
Cn1c(N[C@H]2C[C@H](C(=O)O)C2)nc2c1c(=O)n(Cc1cc3ccccc3[nH]1)c(=O)n2C [Example 289, (1R,3R)-3-(1-((1H-indol-2-yl)methyl)-3,7-dimethyl-2,6-dioxo-2,3,6,7-tetrahydro-1H-purin-8-ylamino)cyclobutanecarboxylic acid]	10 to 1000 nM
